The values below come from ChEMBL document CHEMBL5032508, “Synthesis of Fluorescent Probes Targeting Tumor-Suppressor Protein FHIT and Identification of Apoptosis-Inducing FHIT Inhibitors” (J Med Chem, 2021).

A short description of data set [1]: Dissociation constant, pKa of compound. The class given is physicochemical.
The target of data set [2] is T1, Bis(5'-adenosyl)-triphosphatase (Homo sapiens, UniProt P49789). In words: Inhibition of recombinant human FHIT incubated for 1hr in presence of tokyogreen-labeled CMP probe by fluorescence based analysis.
T1 sequence (P49789 whole entry): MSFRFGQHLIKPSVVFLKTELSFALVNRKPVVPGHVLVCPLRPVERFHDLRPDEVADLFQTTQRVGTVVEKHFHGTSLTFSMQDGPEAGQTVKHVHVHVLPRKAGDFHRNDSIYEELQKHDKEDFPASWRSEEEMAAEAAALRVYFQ
Data set [3] is described as follows: Growth inhibition of human NCI-H460-luc cells incubated for 72 hrs by CCK-8 assay. The class given is functional.
The nature of data set [4]: Growth inhibition of human HCC827-luc cells incubated for 72 hrs by CCK-8 assay. The class given is functional.
Data set [5] has as its target T1, Bis(5'-adenosyl)-triphosphatase. Kind of data set: Inhibition of recombinant human FHIT assessed as reduction in AP3Aase activity measured after 45 mins by HPLC analysis.
The target is the same in data set [6]. In words: Inhibition of human FHIT expressed in Escherichia coli BL21(DE3)-RIL cells using AP3A as substrate pretreated for 10 mins followed by substrate addition and measured after 1 hr by HPLC analysis.

In data set [1], `Cc1cc(=O)oc2cc(O)c(F)cc12` came in with a pKa of 6.3. As for `O=c1cc(C(F)(F)F)c2cc(F)c(O)cc2o1`, the pKa in data set [1] was 5.6. In the case of `Cc1c(OCc2nn[nH]n2)ccc2c3c(c(=O)oc12)CCCC3`, the IC50 in data set [2] stood at 5 µM. Also, the GI50 in data set [3] and in data set [4] was over 100 µM each time. Take `Cc1c(OCc2nn[nH]n2)ccc2c3c(c(=O)oc12)CCC(C)C3` (configuration not stated): the IC50 in data set [2] amounted to 4.66 µM.

With `COc1c(OCC(=O)NO)ccc2c3c(c(=O)oc12)CCCC3`, the IC50 in data set [2] stood at 2.8 µM. The GI50 in data set [3] was 29 µM; in data set [4], 5.3 µM. Take `O=C(COc1cc2oc(=O)c3c(c2cc1Br)CCCC3)NO`: the IC50 in data set [2] turned out to be 18 µM. Regarding `NNC(=O)c1nn(-c2ccccc2)c(=O)cc1O`, in data set [2], the IC50 was 3.98 µM.

Take `CN1C(=O)N/C(=C/c2cccn2-c2ccc(C(=O)O)cc2)C1=O`: in data set [2], the IC50 is 0.77 µM. For the compound `O=C(Cn1cc([N+](=O)[O-])ccc1=O)NC(=O)NCc1ccco1`, the IC50 in data set [2] turned out to be 3.43 µM. On the same count and under the same terms, in the case of `CCc1c(OCC(=O)NO)ccc2c3c(c(=O)oc12)CCCC3` it was 5.3 µM; in that of `O=C(O)c1ccc2[nH]c(-c3ccnc(-c4cccnc4)c3)nc2c1`, 1.58 µM. Turning to `Cc1ccccc1-c1c2ccc(=O)cc-2oc2cc(O)ccc12`, the pKa in data set [1] is 6.2. Turning to `Cc1c(OCC(=O)NO)ccc2c3c(c(=O)oc12)CCCC3`, the IC50 in data set [2] amounted to 1.9 µM; in data set [5], 140 nM. Besides, the GI50 in data set [3] worked out at 15 µM; in data set [4], 2.6 µM. Taken in the same sequence, the figures for `O=C(COc1ccc2c3c(c(=O)oc2c1Br)CCCC3)NO` were 0.12 µM, 60 nM, 5.9 µM and 0.87 µM. On to `Cc1c(OCC(=O)O)ccc2c3c(c(=O)oc12)CCCC3`, for which, in data set [2], the IC50 amounted to 11 µM. Besides, the GI50 in data set [3] and in data set [4] was over 100 µM in each case.

In the case of `O=C(O)c1ccc(/C=N/NC(=O)c2nc(-c3ccccc3)n(-c3ccccc3)n2)cc1`, in data set [2], the IC50 is 3.73 µM. `CC1(C)CC(=O)C2=C(C1)NC1=C(C(=O)c3ccccc31)C2c1ccc(Br)cc1` (configuration not stated): the IC50 in data set [2] turned out to be 8.8 µM; in data set [6], 49 nM; in data set [5] it was 23000 nM. In addition, the GI50 in data set [3] and in data set [4] was over 10 µM each time. For the compound `CC(=O)c1c(OCC(=O)NO)ccc2c3c(c(=O)oc12)CCCC3`, the IC50 in data set [2] came to 8.1 µM. Regarding `Cc1cc(=O)oc2c(C)c(OCC(=O)NO)ccc12`, the IC50 in data set [2] came out at 41 µM. The concentration for 50% growth inhibition (GI50) stood at 66 µM in data set [3] and 9.5 µM in data set [4]. `O=C(COc1cc2oc(=O)c3c(c2cc1Cl)CCCC3)NO`: in data set [2], the IC50 was found to be 50 µM. `NNC(=O)COc1ccc2c3c(c(=O)oc2c1Br)CCCC3`: the IC50 in data set [2] amounted to 4 µM. Also, the GI50 in data set [3] and in data set [4] was over 100 µM throughout.

In the case of `O=C(COc1ccc2c3c(c(=O)oc2c1)CCCC3)NO`, the IC50 in data set [2] was 5.5 µM. In addition, the GI50 in data set [3] amounted to 13 µM; in data set [4], 0.99 µM. As for `CCOC(=O)c1c(C)sc(N)c1C(=O)OCC`, the IC50 in data set [2] came out at 1.01 µM.

With `COCC(=O)N1CC[C@@H]2[C@H]1C(=O)NC[C@H](CCC(=O)OC)N2C`, the IC50 in data set [2] amounted to 4.24 µM. Consider `Cc1ccc(C(=O)Nc2ccc(S(=O)(=O)O)c3cc(S(=O)(=O)O)cc(S(=O)(=O)O)c23)cc1NC(=O)c1cccc(NC(=O)Nc2cccc(C(=O)Nc3cc(C(=O)Nc4ccc(S(=O)(=O)O)c5cc(S(=O)(=O)O)cc(S(=O)(=O)O)c45)ccc3C)c2)c1` [SURAMIN], for which the IC50 in data set [2] turned out to be 50 µM.
